From US4201843A, “Process for manufacturing tylosin derivatives” (Sanraku Ocean Co., Ltd., priority 1975, dated 1980)
Converted amounts (≈) assume the structure as drawn.

Key:
[1] = solubility in solvents; type: physicochemical; details: for solubility in lower alcohols, ketones, ethers, esters, benzene and toluene: e.g. ethanol, acetone, ethyl ether, ethyl acetate
Source text: (§1) The physicochemical analysis and deterimations included elementary analysis, melting point, specific rotatory power, ultraviolet spectrum, infrared spectrum, magnetic nuclear resonance (NMR), C^13 -NMR, mass spectrum (chemical ionization), the release of organic acids under alkaline conditions (gas chromatographical detection), solubility in solvents, color development reaction, basicity of the compounds, appearance and crystalline form. The molecular weight was obtained as QM^+ (Quasi Molecular ion) by chemically-ionized mass spectra analysis.
(§2) (2) the crystals obtained from the solvents in (13) were used for the tests in (1)-(12), and […]

[2] = basicity of the compounds (alkalinity); type: physicochemical
Source text: as §1, §2

[3] = test system: Staphylococcus aureus MS 9610; assay: minimum growth-inhibitory concentration; type: cell-based; details: MS9610; Staphylococcus aureus MS 9610, drug resistant strain
Description: (§3) The antimicrobial spectra of new tylosin derivatives of this invention are shown in Table 2 by listing the minimum growth inhibitory concentrations (MIC, mcg/ml). […] The toxicity of these compounds was tested in animals by intravenous administration, and the LD50 values in mice are more than 400 mg/kg with all compounds. In therapeutical experiments with mice manually infected by Staphilococcus aureus SMITH, the ED50 values were less than 50 mg/kg (p.o.) with all said tylosin derivatives.
(§4) The strains marked * in Table 2 are the drug resistant strains isolated from patients, namely, Staphilococcus aureus MS-9610 which is resistant to penicillin, tetracycline, erythromycin, leucomycin, spiramycin, josamycin and tylosin, Staphilococcus aureus MS-8710 which is resistant to penicillin, tetracycline, erythromycin, leucomycin and tylosin, and Streptococcus pyogenes MH 771 which is resistant to erythromycin, oleandomycin, leucomycin and tylosin.

[4] = test system: Staphylococcus aureus MS 8710; assay: minimum growth-inhibitory concentration; type: cell-based; details: MS8710; Staphylococcus aureus MS 8710, drug resistant strain
Description: as §3, §4

[5] = test system: Streptococcus pyogenes MH 771; assay: minimum growth-inhibitory concentration; type: cell-based; details: MH771, read-out: minimum growth-inhibitory concentration (MIC)
Description: as §3
(broth-dilution method)
as §4

[6] = test system: drug resistant strains; assay: antimicrobial activity against drug resistant strains; type: cell-based; details: strains marked * in Table 2
Source text: One of the particular advantages of the said tylosin derivatives over known macrolide antibiotics is their distinct antimicrobial activity against drug resistant bacteria.
as §4

[7] = test system: Bacillus subtilis ATCC 6633; assay: minimum growth-inhibitory concentration; type: cell-based; details: ATCC6633
Description: as §3

[8] = test system: Staphylococcus aureus FAD209P; assay: minimum growth-inhibitory concentration; type: cell-based; details: read-out: minimum growth-inhibitory concentration (MIC)
Description: as §3

[9] = test system: Escherichia coli (National Institute of Health); assay: minimum growth-inhibitory concentration; type: cell-based
Description: as §3

[10] = test system: Corynebacterium bovis 1810; assay: minimum growth-inhibitory concentration; type: cell-based
Description: as §3

[11] = test system: Candida tropicalis IAM 4924; assay: minimum growth-inhibitory concentration; type: cell-based; details: IAM4924
Description: as §3

[12] = test system: Candida albicans IAM 4905; assay: minimum growth-inhibitory concentration; type: cell-based; details: IAM4905
Description: as §3

[13] = test system: Pseudomonas fluorescens NIHJB 254; assay: minimum growth-inhibitory concentration; type: cell-based; details: NIHJB254
Description: as §3

[14] = test system: Proteus morganii (The Institute for Infectious Diseases); assay: minimum growth-inhibitory concentration; type: cell-based; details: Morganella morganii
Description: as §3

[15] = test system: Sarcina lutea ATCC 9341; assay: minimum growth-inhibitory concentration; type: cell-based; details: Micrococcus luteus, ATCC9341
Description: as §3

[16] = test system: Mycobacterium smegmatis ATCC 607; assay: minimum growth-inhibitory concentration; type: cell-based; details: Mycolicibacterium smegmatis, ATCC607
Description: as §3

[17] = test system: Micrococcus flavus I; assay: minimum growth-inhibitory concentration; type: cell-based
Description: as §3

[18] = test system: Staphylococcus aureus SMITH; assay: minimum growth-inhibitory concentration; type: cell-based
Description: as §3

[19] = test system: Bacillus megaterium NRRL B-938; assay: minimum growth-inhibitory concentration; type: cell-based; details: Priestia megaterium, NRRLB938
Description: as §3

[20] = test system: Bacillus cereus ATCC 9634; assay: minimum growth-inhibitory concentration; type: cell-based; details: ATCC9634
Description: as §3

| SMILES | solubility in acidic water [1] | solubility in alkaline water [1] | solubility in lower alcohols, ketones, ethers, esters, benzene and toluene [1] | solubility in n-hexane and petroleum ether [1] | solubility in neutral water [1] | alkalinity [2] | MIC [3] [mg/L] | MIC [4] [mg/L] | MIC [5] [mg/L] | MIC [7] [mg/L] | MIC [8] [mg/L] | MIC [9] [mg/L] | MIC [10] [mg/L] | MIC [11] [mg/L] | MIC [12] [mg/L] | MIC [13] [mg/L] | MIC [14] [mg/L] | MIC [15] [mg/L] | MIC [16] [mg/L] | MIC [17] [mg/L] | also measured |
| --- | --- | --- | --- | --- | --- | --- | --- | --- | --- | --- | --- | --- | --- | --- | --- | --- | --- | --- | --- | --- | --- |
| CCC(=O)OC1CC(=O)OC(CC)C(COC2OC(C)C(O)C(OC)C2OC)C=C(C)C=CC(=O)C(C)CC(CC=O)C(OC2OC(C)C(OC3CC(C)(O)C(OC(=O)CC(C)C)C(C)O3)C(N(C)C)C2O)C1C (stereo not shown) [3-propionyl-4"-isovaleryltylosin] | soluble | hardly soluble | soluble | hardly soluble | slightly soluble | alkaline compounds | 62.5 (≈ 59.2 µM) | 15.6 (≈ 14.8 µM) | 3.91 (≈ 3.7 µM) | 0.49 (≈ 0.464 µM) | 0.49 (≈ 0.464 µM) | 250 (≈ 237 µM) | 1 (≈ 0.947 µM) | > 250 | > 250 | > 250 | > 250 | 0.25 (≈ 0.237 µM) | 3.91 (≈ 3.7 µM) | 0.49 (≈ 0.464 µM) | antimicrobial activity against a wide range of drug resistant strains [6]: particularly strong antimicrobial activity; MIC [18]: 1.95 mg/L (≈ 1.85 µM); MIC [19]: 0.49 mg/L (≈ 0.464 µM); MIC [20]: 0.98 mg/L (≈ 0.928 µM) |
| CCC1OC(=O)CC(OC(C)=O)C(C)C(OC2OC(C)C(OC3CC(C)(O)C(OC(=O)CC(C)C)C(C)O3)C(N(C)C)C2O)C(CC=O)CC(C)C(=O)C=CC(C)=CC1COC1OC(C)C(O)C(OC)C1OC (stereo not shown) [3-acetyl-4"-isovaleryltylosin] | soluble | hardly soluble | soluble | hardly soluble | slightly soluble | alkaline compounds | 62.5 (≈ 60 µM) | 15.6 (≈ 15 µM) | 3.91 (≈ 3.75 µM) | 0.98 (≈ 0.94 µM) | 0.49 (≈ 0.47 µM) | 125 (≈ 120 µM) | 0.5 (≈ 0.48 µM) | > 250 | > 250 | > 250 | > 250 | 0.25 (≈ 0.24 µM) | 3.91 (≈ 3.75 µM) | 0.25 (≈ 0.24 µM) | antimicrobial activity against a wide range of drug resistant strains [6]: particularly strong antimicrobial activity; MIC [18]: 0.49 mg/L (≈ 0.47 µM); MIC [19]: 0.49 mg/L (≈ 0.47 µM); MIC [20]: 1.95 mg/L (≈ 1.87 µM) |
| CCCC(=O)OC1C(C)OC(OC2C(C)OC(OC3C(CC=O)CC(C)C(=O)C=CC(C)=CC(COC4OC(C)C(O)C(OC)C4OC)C(CC)OC(=O)CC(OC(C)=O)C3C)C(O)C2N(C)C)CC1(C)O (stereo not shown) [3-acetyl-4"-n-butyryltylosin] | soluble | hardly soluble | soluble | hardly soluble | slightly soluble | alkaline compounds | 250 (≈ 243 µM) | 15.6 (≈ 15.2 µM) | 15.6 (≈ 15.2 µM) | 0.49 (≈ 0.477 µM) | 0.25 (≈ 0.243 µM) | 250 (≈ 243 µM) | 0.5 (≈ 0.486 µM) | > 250 | > 250 | > 250 | > 250 | < 0.12 | 1.95 (≈ 1.9 µM) | 0.25 (≈ 0.243 µM) | antimicrobial activity against a wide range of drug resistant strains [6]: particularly strong antimicrobial activity; MIC [18]: 0.25 mg/L (≈ 0.243 µM); MIC [19]: 0.49 mg/L (≈ 0.477 µM); MIC [20]: 0.98 mg/L (≈ 0.953 µM) |
| CCC1OC(=O)CC(O)C(C)C(OC2OC(C)C(OC3CC(C)(O)C(OC(=O)CC(C)C)C(C)O3)C(N(C)C)C2O)C(CC=O)CC(C)C(=O)/C=C/C(C)=C/C1COC1OC(C)C(O)C(OC)C1OC (stereo not shown) [4"-isovaleryltylosin] | soluble | hardly soluble | soluble | hardly soluble | slightly soluble | alkaline compounds | 62.5 (≈ 62.5 µM) | 15.6 (≈ 15.6 µM) | 7.8 (≈ 7.8 µM) | 0.49 (≈ 0.49 µM) | 0.49 (≈ 0.49 µM) | 125 (≈ 125 µM) | 0.5 (≈ 0.5 µM) | > 250 | > 250 | > 250 | > 250 | < 0.12 | 3.91 (≈ 3.91 µM) | 0.25 (≈ 0.25 µM) | antimicrobial activity against a wide range of drug resistant strains [6]: particularly strong antimicrobial activity; MIC [18]: 0.25 mg/L (≈ 0.25 µM); MIC [19]: 0.98 mg/L (≈ 0.98 µM); MIC [20]: 0.98 mg/L (≈ 0.98 µM) |
| CCCC(=O)OC1C(C)OC(OC2C(C)OC(OC3C(CC=O)CC(C)C(=O)/C=C/C(C)=C/C(COC4OC(C)C(O)C(OC)C4OC)C(CC)OC(=O)CC(O)C3C)C(O)C2N(C)C)CC1(C)O (stereo not shown) [4"-n-butyryltylosin] | soluble | hardly soluble | soluble | hardly soluble | slightly soluble | alkaline compounds | > 250 | 62.5 (≈ 63.4 µM) | 15.6 (≈ 15.8 µM) | 0.49 (≈ 0.497 µM) | 0.25 (≈ 0.253 µM) | 125 (≈ 127 µM) | 0.98 (≈ 0.994 µM) | > 250 | > 250 | > 250 | > 250 | 0.25 (≈ 0.253 µM) | 3.91 (≈ 3.96 µM) | 0.49 (≈ 0.497 µM) | antimicrobial activity against a wide range of drug resistant strains [6]: particularly strong antimicrobial activity; MIC [18]: 0.25 mg/L (≈ 0.253 µM); MIC [19]: 0.49 mg/L (≈ 0.497 µM); MIC [20]: 0.98 mg/L (≈ 0.994 µM) |
| CCC1OC(=O)CC(OC(C)=O)C(C)C(OC2OC(C)C(OC3CC(C)(O)C(O)C(C)O3)C(N(C)C)C2O)C(CC=O)CC(C)C(=O)/C=C/C(C)=C/C1COC1OC(C)C(O)C(OC)C1OC (stereo not shown) [3-acetyltylosin] | soluble | hardly soluble | soluble | hardly soluble | slightly soluble | alkaline compounds | > 250 | 250 (≈ 261 µM) | 125 (≈ 130 µM) | 0.49 (≈ 0.511 µM) | 0.25 (≈ 0.261 µM) | 250 (≈ 261 µM) | 0.25 (≈ 0.261 µM) | > 250 | > 250 | > 250 | > 250 | < 0.12 | 7.81 (≈ 8.15 µM) | < 0.12 | MIC [18]: 0.12 mg/L (≈ 0.125 µM); MIC [19]: 0.25 mg/L (≈ 0.261 µM); MIC [20]: 0.49 mg/L (≈ 0.511 µM) |
| CCC(=O)OC1CC(=O)OC(CC)C(COC2OC(C)C(O)C(OC)C2OC)/C=C(C)/C=C/C(=O)C(C)CC(CC=O)C(OC2OC(C)C(OC3CC(C)(O)C(O)C(C)O3)C(N(C)C)C2O)C1C (stereo not shown) [3-propionyltylosin] | soluble | hardly soluble | soluble | hardly soluble | slightly soluble | alkaline compounds | > 250 | 62.5 (≈ 64.3 µM) | 62.5 (≈ 64.3 µM) | 0.25 (≈ 0.257 µM) | 0.25 (≈ 0.257 µM) | 250 (≈ 257 µM) | 0.25 (≈ 0.257 µM) | > 250 | > 250 | > 250 | > 250 | < 0.12 | 3.91 (≈ 4.02 µM) | < 0.12 | MIC [18]: 0.12 mg/L (≈ 0.123 µM); MIC [19]: < 0.12 mg/L; MIC [20]: 0.25 mg/L (≈ 0.257 µM) |
